Test systems include UO-31 renal; SK-MEL-28 melanoma; HOP-62 NSCLC; HOP-92 NSCLC; CCRF-CEM leukemia; TK-10 renal; NCI/ADR-RES ovarian; M14 melanoma; OVCAR-3 ovarian; RXF 393 renal.
Test in all cases: NCI-60 cell line screen, 48 h

Molecules are shown by their SMILES. “And” between values parts separate entries of the source, which are not always exact repeats. Identical values can stand only once.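 1) Cells in 96-well plates. 2) Compound, 48 h, 5 concentrations. 3) Linear interpolation between surrounding doses. 4) Unreached endpoint = highest concentration. GI50: concentration for 50% inhibition of growth. At the TGI there is no net growth.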

On to `CN(C)CC1CC/C(=C\c2ccc3c(c2)OCO3)C1=O` (stereo not drawn), for which the TGI in the assay with UO-31 renal was 24.8 µM; in the assay on SK-MEL-28 melanoma, 22.9 µM; in the assay on HOP-62 NSCLC, > 70.1 µM; in the assay on HOP-92 NSCLC, 33.1 µM; in the assay with CCRF-CEM leukemia, 19.7 µM; in the assay with TK-10 renal, 25.1 µM. Besides, the TGI stood at 12.4 µM in the assay with NCI/ADR-RES ovarian, 15 µM with M14 melanoma, 15.3 µM in the assay with OVCAR-3 ovarian and 29.1 µM in the assay on RXF 393 renal.
As for `CCN(CC)CCCC(C)Nc1cc(-c2cccc(OC(F)(F)F)c2)nc2ccc(N3CCCC3)cc12` (stereo not drawn), the GI50 in the assay on UO-31 renal is 0.0699 µM; with SK-MEL-28 melanoma, 5.85 µM; with HOP-62 NSCLC, 0.0806 µM; with HOP-92 NSCLC, 0.582 µM; in the assay with CCRF-CEM leukemia, 0.0564 µM; with TK-10 renal it was 8.82 µM. Further, the GI50 in the assay on NCI/ADR-RES ovarian was 0.0453 µM; in the assay on M14 melanoma, 0.0361 µM; with OVCAR-3 ovarian it was 0.0305 µM; in the assay with RXF 393 renal, 0.0357 µM. The TGI in the assay with UO-31 renal is 44.3 µM; with SK-MEL-28 melanoma it was 58.4 µM; with HOP-62 NSCLC it was > 48.2 µM; in the assay with HOP-92 NSCLC, 13.4 µM; in the assay on CCRF-CEM leukemia, > 100 µM; with TK-10 renal, > 93.1 µM. Also, the TGI with NCI/ADR-RES ovarian turned out to be 6.27 µM; in the assay with M14 melanoma, 1.16 µM; with OVCAR-3 ovarian, 0.382 µM; with RXF 393 renal it was 89.1 µM.
For the compound `O=C(NCC(F)(F)F)Nc1cccc(-c2cnc3cc(-c4ccc(F)cc4)ccn23)c1`, the GI50 in the assay on UO-31 renal is 0.575 µM; with SK-MEL-28 melanoma, 9.16 µM; in the assay on HOP-62 NSCLC it was 1.51 µM; in the assay with HOP-92 NSCLC, 2.15 µM; in the assay with CCRF-CEM leukemia it was 1.25 µM; with TK-10 renal, 1.02 µM. In addition, the GI50 in the assay with NCI/ADR-RES ovarian was 1.82 µM; in the assay on M14 melanoma it was 1.15 µM; in the assay on OVCAR-3 ovarian, 0.812 µM; in the assay with RXF 393 renal, 1.13 µM. Further, the TGI in the assay with UO-31 renal was 5.53 µM; in the assay with SK-MEL-28 melanoma, > 83 µM; with HOP-62 NSCLC, > 86.3 µM; with HOP-92 NSCLC, > 100 µM; in the assay on CCRF-CEM leukemia, > 82.7 µM; in the assay on TK-10 renal, 17.7 µM. Moreover, the TGI with NCI/ADR-RES ovarian is > 68 µM; in the assay with M14 melanoma it was > 100 µM; in the assay on OVCAR-3 ovarian, 15.8 µM; with RXF 393 renal it was 6.36 µM.
As to `O=C1CSC(c2ccccc2Cl)N1c1nnc(Cn2cnnc2)o1` (stereo not drawn), the GI50 in the assay with UO-31 renal was 30.8 µM; in the assay with SK-MEL-28 melanoma, 12.3 µM; in the assay on HOP-62 NSCLC it was 17.6 µM; in the assay on HOP-92 NSCLC it was 19.3 µM; in the assay on CCRF-CEM leukemia, 5.83 µM; in the assay on TK-10 renal it was 22.8 µM. Further, the GI50 with NCI/ADR-RES ovarian is 6.64 µM; in the assay on M14 melanoma, 6.06 µM; in the assay with OVCAR-3 ovarian, 3.4 µM; in the assay with RXF 393 renal, 24.3 µM. Besides, the TGI in the assay on UO-31 renal is > 100 µM; in the assay on SK-MEL-28 melanoma, 45.8 µM; in the assay on HOP-62 NSCLC it was 44.6 µM; in the assay with HOP-92 NSCLC, 79.1 µM; with CCRF-CEM leukemia, > 100 µM; in the assay on TK-10 renal, 81.9 µM. In addition, the TGI in the assay on NCI/ADR-RES ovarian came to 83.4 µM; in the assay on M14 melanoma, 24.7 µM; in the assay on OVCAR-3 ovarian, 10.7 µM; in the assay with RXF 393 renal it was 79.4 µM.
Regarding `CCCCCC(O)C(O)CCC[C@H](O)[C@H]1CC[C@H]([C@H]2CC[C@H]([C@H](O)CCCCCCCCCCCCC3=C[C@H](C)OC3=O)O2)O1` (stereo partly drawn), the GI50 in the assay with UO-31 renal was 4.46 µM; in the assay with SK-MEL-28 melanoma, 14.7 µM; in the assay with HOP-62 NSCLC, 15.2 µM; with TK-10 renal, 6.83 µM; with NCI/ADR-RES ovarian it was 2.75 µM; in the assay with M14 melanoma it was 6.98 µM. Moreover, the GI50 with OVCAR-3 ovarian was 12.3 µM; with RXF 393 renal it was 11.1 µM. Further, the TGI with UO-31 renal was 5.67 µM and 20.5 µM; with SK-MEL-28 melanoma, 73 µM; in the assay with HOP-62 NSCLC, 32 µM; in the assay on HOP-92 NSCLC, 61.7 µM; with CCRF-CEM leukemia, 8.35 µM; in the assay with TK-10 renal, 26.2 µM. Also, the TGI in the assay with NCI/ADR-RES ovarian is 8.99 µM and 29.1 µM; with M14 melanoma, 29.9 µM; with OVCAR-3 ovarian it was 8.38 µM and 31.6 µM; with RXF 393 renal, 30.9 µM.
For `C#Cc1cccc(Nc2nc(Cl)nc3cc(NC(=O)CCl)ccc23)c1`, the GI50 was 0.823 µM with UO-31 renal; 2.85 µM in the assay with SK-MEL-28 melanoma; 1.99 µM in the assay with HOP-62 NSCLC; 1.23 µM in the assay on HOP-92 NSCLC; 0.588 µM in the assay with CCRF-CEM leukemia; 1.74 µM in the assay on TK-10 renal. For the same compound, the GI50 with NCI/ADR-RES ovarian was 1.28 µM; in the assay on M14 melanoma, 0.764 µM; in the assay with OVCAR-3 ovarian, 0.47 µM; with RXF 393 renal, 0.857 µM. Further, the TGI with UO-31 renal came out at 3.15 µM; with SK-MEL-28 melanoma, 6.12 µM; in the assay with HOP-62 NSCLC, 5.32 µM; in the assay with HOP-92 NSCLC it was 2.86 µM; in the assay with CCRF-CEM leukemia, 2.47 µM; in the assay with TK-10 renal, 5.29 µM. For the same compound, the TGI amounted to 13.6 µM in the assay with NCI/ADR-RES ovarian, 2.64 µM with M14 melanoma, 0.984 µM in the assay on OVCAR-3 ovarian and 3.38 µM in the assay with RXF 393 renal.
For the compound `C1CN(c2nnc(N3CCC3)nn2)C1`, the TGI with UO-31 renal is > 100 µM; in the assay on SK-MEL-28 melanoma it was > 68.3 µM; in the assay with HOP-62 NSCLC, > 100 µM; in the assay on HOP-92 NSCLC it was > 100 µM; with CCRF-CEM leukemia, > 100 µM; in the assay on TK-10 renal, > 100 µM. Also, the TGI with NCI/ADR-RES ovarian is > 100 µM; in the assay with M14 melanoma it was 62.1 µM; in the assay on OVCAR-3 ovarian it was > 100 µM; with RXF 393 renal, > 74.5 µM.
For the compound `CCCCCCCCCCCCC(O)c1ccco1` (stereo not drawn), the GI50 in the assay on UO-31 renal was 19 µM; in the assay on SK-MEL-28 melanoma, 24.3 µM; with HOP-62 NSCLC, 20.6 µM; in the assay on HOP-92 NSCLC it was 15.5 µM; in the assay with CCRF-CEM leukemia it was 19.4 µM; in the assay with TK-10 renal it was 22.8 µM. The GI50 with NCI/ADR-RES ovarian is 16.4 µM; in the assay on M14 melanoma it was 21 µM; in the assay with OVCAR-3 ovarian it was 17.9 µM; with RXF 393 renal it was 24 µM. Besides, the TGI was found to be 39.7 µM in the assay with UO-31 renal; 55.3 µM with SK-MEL-28 melanoma; 36.8 µM in the assay on HOP-62 NSCLC; 32.1 µM in the assay on HOP-92 NSCLC; 38.5 µM in the assay on CCRF-CEM leukemia; 40.9 µM in the assay on TK-10 renal. The TGI in the assay with NCI/ADR-RES ovarian stood at 30.8 µM; with M14 melanoma it was 37.9 µM; with OVCAR-3 ovarian, 34.4 µM; in the assay on RXF 393 renal, 44.7 µM.

The record behind these values is PubChem BioAssay (NCI).
